Experimental data taken from patent US20100150842A1, “Method and Kit for Detecting Resistance in Living Organisms” (priority 2007, published 2010).
Read-outs that look alike come from different tables or passages of the source.

Tests used:
[1] = test system: fish and aquatic invertebrates; conditions: water bodies; cited from earlier work
[2] = cited from earlier work
[3] = test system: Stellaria media SU-susceptible and SU-resistant biotype; assay: Biomarker pattern (HPPC) in extracts of Stellaria media exposed to iodosulfuron; format: in vivo; conditions: for number of type B biomarkers detected in extracts of susceptible plants: 50% of recommended field dose
Description: A SU-susceptible and SU-resistant biotype of Stellaria media was cultivated outdoors in 2-litre pots. At the 4-5 leaf stage the plants were exposed to iodosulfuron (IOD) applied in mixture with a methylated vegetable oil (Renol). Iodosulfuron was applied at 50% of the recommended field dose. The plants were harvested 4, 7 and 14 days after exposure. Immediately after harvest the plants were frozen and freeze-dried.
Freeze-dried plant material (50 mg per ml of 75% ethanol) was extracted in ultrasonic bath with ice for two hours. The extracts were centrifuged before analysis.
A biomarker pattern was detected as phytochemical changes in plant extracts. A comparison of the extracts of an un-treated susceptible (Biotype 1) and an untreated resistant (Biotype 2) of Stellaria media is shown as biomarkers type A. See further description in Example 3.
A comparison of extracts of the same biotypes exposed to iodosulfuron is shown as biomarkers type B. See further description in Example 3.
High Performance Planar Chromatography (HPPC)-systems were used to detect the two types of biomarkers.

[4] = test system: Papaver rhoeas sensitive and target resistant biotypes; assay: TLC analysis of Papaver rhoeas extracts, unexposed and exposed to Hussar OD; format: in vivo
From the text: S0=ID 150 Biotype 4 sensitive control S1=ID 150 Biotype 4 sensitive exposed to 1N Hussar OD+0.5 I/ha Renol R0=ID 397 Biotype 5 Target resistant control R1=ID 397 Biotype 5 Target resistant exposed to 1N Hussar OD+0.5 I/ha Renol R10=ID 397 Biotype 5 Target resistant exposed to 10N Hussar OD+0.5 I/ha Renol R20=ID 248 Biotype 6 Target resistant exposed control R21=ID 248 Biotype 6 Target resistant exposed to 1N Hussar OD+0.5 I/ha Renol R210=ID 248 Biotype 6 Target resistant exposed to 10N Hussar OD+0.5 I/ha Renol R30=ID 406 Biotype 12 Target resistant exposed control R31=ID 406 Biotype 12 Target resistant exposed to 1N Hussar OD+0.5 I/ha Renol R310=ID 406 Biotype 12 Target resistant exposed to 10N Hussar OD+0.5 I/ha Renol
100 mg freeze-dried plant material (Papaver rhoeas (Papaveraceae) in 4.00 ml 80% Ethanol extracted for 20 min. in ultrasonic bath (Realisation Etudes Ultra Son (REUS), 16, allée des Cystes, 06390 Contes, France). The extract was filtered through GELMAN GHP Agrodisc 13 0.45 μm.
The extracts (20 μl) were applicated on Silicagel 60 Merck 1.05721 (10×20 cm) or (10 μl) Cellulose aluminium Merck 1.05552.0001 together with the reference 1 0/00 papaverin in ethanol using a TLC Automatic TLC Sampler III.
TLC 5) Plate: Cellulose; Solvent: 2% Acetic acid in Water. The results can be seen in FIG. 7.
Detection: UV 366 nm after derivatisation with NEU+PEG is seen in FIG. 7b.

[5] = test system: Stellaria media sensitive and target resistant biotypes; assay: TLC analysis of Stellaria media extracts, unexposed and exposed to Hussar OD; format: in vivo
From the text: S0=ID 1 Biotype 1 sensitive control S1=ID 1 Biotype 1 sensitive exposed to 1N Hussar OD+0.5 I/ha Renol R10=ID 9 Biotype 2 Target resistant control R11=ID 9 Biotype 2 Target resistant exposed to 1N Hussar OD+0.5 I/ha Renol R110=ID 9 Biotype 2 Target resistant exposed to 10N Hussar OD+0.5 I/ha Renol R20=ID 102 Biotype 3 Target resistant exposed control R21=ID 102 Biotype 3 Target resistant exposed to 1N Hussar OD+0.5 I/ha Renol R210=ID 102 Biotype 3 Target resistant exposed to 10N Hussar OD+0.5 I/ha Renol
Et=100 mg freeze-dried plant material in 4.00 ml 80% Ethanol extracted for 20 min. in ultrasonic bath (Réalisation Etudes Ultra Son (REUS), 16, allée des Cystes, 06390 Contes, France).
Aq=50 mg freeze-dried plant material in 4.00 ml 80% Ethanol extracted for 20 min. in ultrasonic bath (Réalisation Etudes Ultra Son (REUS), 16, allée des Cystes, 06390 Contes, France)+200 it EtOH after filtration.
The extracts (10 μl) were applicated on Silicagel 60 Merck 1.05721 (10×20 cm) or (5 μl) Cellulose aluminium Merck 1.05552.0001 with together with the reference T=1 0/00× in ethanol using a TLC Automatic TLC Sampler III.

[6] = test system: SU-resistant Stellaria media biotypes; assay: Resistance factors of SU-resistant Stellaria media biotypes to herbicides (ratio of ED50 values); format: in vivo
From the text: The sensitivity to a specific herbicide of each biotype can be tested by determining the amount of herbicide needed to reduce the biomass to 50% of the non-treated plants of the same biotype. When comparing sensitivity among biotypes the “resistance factor” can be used to characterise the sensitivity.
The “resistance factor” is used to characterize the extent of susceptibility and resistance of a species to a herbicide. Resistance factors are typically represented as a ration of ED50 values for different biotypes.
The resistance factor is the ratio of the ED50 value of the resistant and susceptible biotypes.
Results from a study with 6 SU-resistant (Sulfonylurea-resistant) Stellaria media biotypes are included.

For `CCC(CC)Nc1c([N+](=O)[O-])cc(C)c(C)c1[N+](=O)[O-]` [Pendimethalin], the toxicity to fish [1] is given as “toxic”.
In the case of `O=C(O)CNCP(=O)(O)O` [Glyphosate], the half-life ([2]; degraded by rapid microbial action) is given as 3-5 weeks.
For `N#Cc1cc(Br)c(O)c(Br)c1` [Bromoxynil], the half-life ([2]; most soil types) is listed as “two”.
In the case of `COc1nc(C)nc(NC(=O)NS(=O)(=O)c2cc(I)ccc2C(=O)O)n1` [iodosulfuron], the “number of type B biomarkers detected in extracts of susceptible plants” value ([3]; 7 and 14 days after exposure) is reported as 7, the “number of type B biomarkers detected in extracts of susceptible plants” value ([3]; 4 days after exposure) is reported as “Five” and the “unique biomarker pattern in extracts” value ([3]; SU-resistant Stellaria media biotype) is reported as “absent”. The “unique biomarker pattern in extracts” value ([3]; susceptible Stellaria media biotype, 4, 7 and 14 days after exposure) was “detected”, the “new flavonoid in plant extract (TLC)” value ([4]; Papaver rhoeas biotypes of the target resistant plants) was “not present” and the “new flavonoid in plant extract (TLC)” value ([4]; Papaver rhoeas sensitive plant exposed) was “present”. The “new flavonoid in plant extract (TLC)” value ([5]; Stellaria media sensitive plant exposed) was “present” and the “new flavonoid in plant extract (TLC)” value ([5]; Stellaria media target resistant biotypes, only at very high exposure concentrations (10N)) was “not present”.
For `COc1ncc(F)c2nc(S(=O)(=O)Nc3c(F)cccc3F)nn12` [florasulam], the “cross-resistance of SU-resistant biotypes” value [6] was “could not be confirmed”.
